Experimental data reported in US8129371B2, “Thienopyrimidine and pyrazolopyrimidine compounds and their use as mTOR kinase and PI3 kinase inhibitors” (Wyeth LLC, priority 2007, dated 2012).
Like-named read-outs stand apart in the source and are kept apart here.

Legend:
prostate line LNCap = assay: In vitro cell culture growth assay (MTS), LNCap; assay type: cell-based; details: Homo sapiens, LNCaP, 72 h, LNCap cells, three days after drug treatment
How it was run: (§1)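 Growth is reported as percent of vehicle-treated control grown in the same plate, with viability determined by metabolic conversion of MTS dye and absorbance read at 490 nm. Compounds were applied one day after plating and left for three days.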

PI3K [1] = target: T1, PI3K (Homo sapiens, UniProt P48736); assay: Fluorescence polarization assay for PI3K; assay type: biochemical; details: read-out: PI3 Kinase γ IC50
T1 construct: PI3 Kinase γ IC50; other: PI3 Kinase γ; other: PI3 Kinase γ isoform, fluorescence polarization
T1 sequence (P48736 whole entry, canonical isoform): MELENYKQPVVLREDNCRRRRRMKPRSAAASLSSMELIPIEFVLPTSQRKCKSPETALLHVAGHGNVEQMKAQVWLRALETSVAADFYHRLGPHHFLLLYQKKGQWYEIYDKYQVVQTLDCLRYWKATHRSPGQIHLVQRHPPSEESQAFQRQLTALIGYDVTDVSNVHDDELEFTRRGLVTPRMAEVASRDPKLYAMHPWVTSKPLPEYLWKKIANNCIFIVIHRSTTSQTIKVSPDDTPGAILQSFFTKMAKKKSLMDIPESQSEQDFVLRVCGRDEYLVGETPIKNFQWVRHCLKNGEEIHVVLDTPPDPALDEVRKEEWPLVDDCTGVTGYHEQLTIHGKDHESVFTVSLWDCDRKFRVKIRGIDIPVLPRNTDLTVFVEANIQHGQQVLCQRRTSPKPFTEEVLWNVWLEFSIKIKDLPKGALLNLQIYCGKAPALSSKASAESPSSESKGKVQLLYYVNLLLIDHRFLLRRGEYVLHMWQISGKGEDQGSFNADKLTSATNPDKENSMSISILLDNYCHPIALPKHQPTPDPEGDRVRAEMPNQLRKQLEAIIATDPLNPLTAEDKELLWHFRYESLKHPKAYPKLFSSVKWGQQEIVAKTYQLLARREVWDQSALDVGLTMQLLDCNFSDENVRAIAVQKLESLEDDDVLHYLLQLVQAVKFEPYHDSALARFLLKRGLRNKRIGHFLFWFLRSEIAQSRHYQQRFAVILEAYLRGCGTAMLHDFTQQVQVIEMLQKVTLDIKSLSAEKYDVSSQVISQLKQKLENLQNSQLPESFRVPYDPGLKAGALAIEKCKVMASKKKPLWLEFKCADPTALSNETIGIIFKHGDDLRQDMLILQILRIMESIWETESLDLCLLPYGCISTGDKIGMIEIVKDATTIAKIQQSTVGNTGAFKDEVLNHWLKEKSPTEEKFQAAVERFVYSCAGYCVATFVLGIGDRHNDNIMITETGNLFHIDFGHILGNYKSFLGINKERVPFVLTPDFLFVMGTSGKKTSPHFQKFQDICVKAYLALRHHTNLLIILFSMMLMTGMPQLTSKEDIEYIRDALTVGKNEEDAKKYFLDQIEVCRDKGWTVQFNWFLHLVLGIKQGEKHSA
How it was run: (§2)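 PI3K was preincubated with compound (final DMSO 1%), and the reaction was started with PIP2/ATP substrate and run 30–60 min. It was stopped with a detector mix giving 10 nM red probe and 70 nM GST-GRP.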

PI3K [2] = target: T2, PI3K (Homo sapiens, UniProt P42336); assay: Fluorescence polarization assay for PI3K; assay type: biochemical; details: read-out: PI3 Kinase α IC50
T2 construct: PI3 Kinase α IC50; other: PI3 Kinase α; other: PI3 Kinase α isoform, fluorescence polarization
T2 sequence (P42336 whole entry, canonical isoform): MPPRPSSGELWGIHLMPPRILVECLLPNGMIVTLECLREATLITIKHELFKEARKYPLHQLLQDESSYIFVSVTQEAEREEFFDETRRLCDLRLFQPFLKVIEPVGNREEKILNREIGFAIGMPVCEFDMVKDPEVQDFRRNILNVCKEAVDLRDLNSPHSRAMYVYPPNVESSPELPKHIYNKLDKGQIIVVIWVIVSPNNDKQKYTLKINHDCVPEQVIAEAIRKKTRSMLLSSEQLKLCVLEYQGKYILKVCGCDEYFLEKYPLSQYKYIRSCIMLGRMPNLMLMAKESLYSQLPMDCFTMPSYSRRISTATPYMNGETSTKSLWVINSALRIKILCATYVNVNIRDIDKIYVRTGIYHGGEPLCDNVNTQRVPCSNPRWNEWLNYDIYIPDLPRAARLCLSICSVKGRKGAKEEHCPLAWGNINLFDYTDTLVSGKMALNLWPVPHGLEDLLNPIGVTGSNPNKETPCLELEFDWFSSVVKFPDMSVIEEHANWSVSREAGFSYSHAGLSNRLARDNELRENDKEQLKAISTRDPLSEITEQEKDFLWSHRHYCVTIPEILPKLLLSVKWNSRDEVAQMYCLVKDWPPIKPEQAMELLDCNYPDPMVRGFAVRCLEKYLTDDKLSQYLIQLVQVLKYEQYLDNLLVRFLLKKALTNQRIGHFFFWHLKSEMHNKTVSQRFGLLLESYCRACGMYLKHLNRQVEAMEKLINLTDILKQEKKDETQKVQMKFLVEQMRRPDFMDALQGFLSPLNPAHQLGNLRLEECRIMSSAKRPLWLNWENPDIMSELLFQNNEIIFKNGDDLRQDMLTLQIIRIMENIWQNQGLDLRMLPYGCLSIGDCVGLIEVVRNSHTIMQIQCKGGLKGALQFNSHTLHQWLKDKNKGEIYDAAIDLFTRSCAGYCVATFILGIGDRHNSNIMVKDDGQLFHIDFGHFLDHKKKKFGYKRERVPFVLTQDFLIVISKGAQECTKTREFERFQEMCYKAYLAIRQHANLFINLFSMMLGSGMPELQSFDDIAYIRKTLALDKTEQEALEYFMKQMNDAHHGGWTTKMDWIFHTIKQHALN
How it was run: as §2

breast line MDA468 = assay: In vitro cell culture growth assay (MTS), MDA468; assay type: cell-based; details: Homo sapiens, 72 h, MDA468 cells, three days after drug treatment
How it was run: as §1

Human mTOR (FLAG-TOR) = target: T3, Human mTOR (FLAG-TOR) (Homo sapiens, UniProt P42345); assay: Human mTOR kinase assay with purified enzyme, DELFIA format; assay type: biochemical
T3 construct: FLAG
How it was run: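 Purified FLAG-mTOR in HEPES pH 7.4 buffer with 10 mM MnCl2 was preincubated with inhibitor and reacted 2 h at room temperature with His6-S6K substrate, then stopped with EDTA/EGTA. Phospho-T389 S6K detected by DELFIA with Eu-labelled antibody (40 ng/mL) after plate capture; inhibition computed from signal.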

[3] = PI3 Kinase γ isoform, fluorescence polarization
[4] = PI3 Kinase α isoform, fluorescence polarization
[5] = purified human mTOR enzyme, DELFIA format

Compound	IC50 (prostate line LNCap) [nM]	IC50 (PI3K [1]; PI3 Kinase γ) [nM]	IC50 (PI3K [2]; PI3 Kinase α) [nM]	IC50 (breast line MDA468) [nM]	IC50 (Human mTOR (FLAG-TOR)) [nM]	IC50 (PI3K [1]; [3]) [nM]	IC50 (PI3K [2]; [4]) [nM]	IC50 (Human mTOR (FLAG-TOR); [5]) [nM]
CC(C)n1ncc2c(N3CC4CCC(C3)O4)nc(-c3ccc(NC(=O)Nc4ccncc4)cc3)nc21 [Example 149, 1-{4-[1-isopropyl-4-(8-oxa-3-azabicyclo[3.2.1]oct-3-yl)-1H-pyrazolo[3,4-d]pyrimidin-6-yl]phenyl}-3-pyridin-4-ylurea]	< 1	342	40	4	0.125	–	–	–
CCn1ncc2c(N3CC4CCC(C3)O4)nc(-c3ccc(NC(=O)Nc4ccc(OCCO)nc4)cc3)nc21 [Example 282, 1-{4-[1-ethyl-4-(8-oxa-3-azabicyclo[3.2.1]oct-3-yl)-1H-pyrazolo[3,4-d]pyrimidin-6-yl]phenyl}-3-[6-(2-hydroxyethoxy)pyridin-3-yl]urea]	5	1160	166	21	0.3	–	–	–
CN1CCN(Cc2cc3nc(-c4ccc(NC(=O)NC5CC5)cc4)nc(N4CC5CCC(C4)O5)c3s2)CC1 [Example 424, 1-cyclopropyl-3-(4-{6-[(4-methylpiperazin-1-yl)methyl]-4-(8-oxa-3-azabicyclo[3.2.1]oct-3-yl)thieno[3,2-d]pyrimidin-2-yl}phenyl)urea]	400	–	–	2000	–	3670	874	15.5
CCn1nc(C(O)CO)c2c(N3CC4CCC(C3)O4)nc(-c3ccc(NC(=O)NC)cc3)nc21 (stereo not drawn) [Example 351, 1-{4-[3-(1,2-dihydroxyethyl)-1-ethyl-4-(8-oxa-3-azabicyclo[3.2.1]oct-3-yl)-1H-pyrazolo[3,4-d]pyrimidin-6-yl]phenyl}-3-methylurea]	1050	–	–	1600	–	> 10000	2460	9
CN1CCN(c2ccc(NC(=O)Nc3ccc(-c4nc(N5CC6CCC(C5)O6)c5cnn(C6CCC7(CC6)OCCO7)c5n4)cc3)cc2)CC1 [Example 135, 1-{4-[1-(1,4-dioxaspiro[4.5]dec-8-yl)-4-(8-oxa-3-azabicyclo[3.2.1]oct-3-yl)-1H-pyrazolo[3,4-d]pyrimidin-6-yl]phenyl}-3-[4-(4-methylpiperazin-1-yl)phenyl]urea]	1	1710	146	1	0.268	–	–	–
CCNC(=O)Nc1ccc(-c2nc(N3CC4CCC(C3)O4)c3cnn(C4CCN(C(=O)C(C)C)CC4)c3n2)cc1 [Example 83, 1-ethyl-3-{4-[1-(1-isobutyrylpiperidin-4-yl)-4-(8-oxa-3-azabicyclo[3.2.1]oct-3-yl)-1H-pyrazolo[3,4-d]pyrimidin-6-yl]phenyl}urea]	40	> 10000	2350	240	0.76	–	–	–
O=C(Nc1ccc(-c2nc(N3CC4CCC(C3)O4)c3cnn(CC(F)(F)F)c3n2)cc1)Nc1ccc(N2CCOCC2)cc1 [Example 251, 1-(4-morpholin-4-ylphenyl)-3-{4-[4-(8-oxa-3-azabicyclo[3.2.1]oct-3-yl)-1-(2,2,2-trifluoroethyl)-1H-pyrazolo[3,4-d]pyrimidin-6-yl]phenyl}urea]	< 1	> 10000	1000	< 1	0.34	–	–	–
O=C(Nc1ccccc1)Nc1ccc(-c2nc(N3CC4CCC(C3)O4)c3cnn(C4CCNCC4)c3n2)cc1 [Example 29, 1-{4-[4-(8-oxa-3-azabicyclo[3.2.1]oct-3-yl)-1-piperidin-4-yl-1H-pyrazolo[3,4-d]pyrimidin-6-yl]phenyl}-3-phenylurea]	100	2310	273	280	2.3	–	–	–
COCC(COC)n1ncc2c(N3CC4CCC(C3)O4)nc(-c3ccc(NC(=O)NCCO)cc3)nc21 [Example 322, 1-(2-hydroxyethyl)-3-(4-{1-[2-methoxy-1-(methoxymethyl)ethyl]-4-(8-oxa-3-azabicyclo[3.2.1]oct-3-yl)-1H-pyrazolo[3,4-d]pyrimidin-6-yl}phenyl)urea]	1000	–	–	2800	–	> 10000	1250	6.45
Cn1ncc2c(N3CC4CCC(C3)O4)nc(-c3ccc(NC(=O)NCCO)cc3)nc21 [Example 54, 1-(2-hydroxyethyl)-3-{4-[1-methyl-4-(8-oxa-3-azabicyclo[3.2.1]oct-3-yl)-1H-pyrazolo[3,4-d]pyrimidin-6-yl]phenyl}urea]	410	5790	437	1200	1.1	–	–	–
COCC(COC)n1ncc2c(N3CC4CCC(C3)O4)nc(-c3ccc(NC(=O)Nc4ccc(N5CCNCC5)cc4)cc3)nc21 [Example 335, 1-(4-{1-[2-methoxy-1-(methoxymethyl)ethyl]-4-(8-oxa-3-azabicyclo[3.2.1]oct-3-yl)-1H-pyrazolo[3,4-d]pyrimidin-6-yl}phenyl)-3-(4-piperazin-1-ylphenyl)urea]	28	–	–	210	–	4480	273	2.35
CN1CCN(Cc2cc3nc(-c4ccc(NC(=O)Nc5ccncc5)cc4)nc(N4CC5CCC(C4)O5)c3s2)CC1 [Example 427, 1-(4-{6-[(4-methylpiperazin-1-yl)methyl]-4-(8-oxa-3-azabicyclo[3.2.1]oct-3-yl)thieno[3,2-d]pyrimidin-2-yl}phenyl)-3-pyridin-4-ylurea]	200	–	–	390	–	1270	86	3.7
CCOC(=O)N1CCC(n2ncc3c(N4CC5CCC(C4)O5)nc(-c4ccc(NC(=O)NC5CCN(C)CC5)cc4)nc32)CC1 [Example 36, ethyl 4-[6-(4-{[(1-methylpiperidin-4-yl)carbamoyl]amino}phenyl)-4-(8-oxa-3-azabicyclo[3.2.1]oct-3-yl)-1H-pyrazolo[3,4-d]pyrimidin-1-yl]piperidine-1-carboxylate]	1200	7620	6210	4500	26	–	–	–
O=C(Nc1ccc(-c2nc(N3CC4CCC(C3)O4)c3cnn(C4CCN(Cc5cccnc5)CC4)c3n2)cc1)OCCO [Example 210, 2-hydroxyethyl (4-{4-(8-oxa-3-azabicyclo[3.2.1]oct-3-yl)-1-[1-(pyridin-3-ylmethyl)piperidin-4-yl]-1H-pyrazolo[3,4-d]pyrimidin-6-yl}phenyl)carbamate]	4	> 10000	1750	110	0.93	–	–	–
COC(=O)N1CCC(n2ncc3c(N4C5CCC4COC5)nc(-c4ccc(NC(=O)Nc5ccc(CN(C)C)cc5)cc4)nc32)CC1 [Example 366]	10	–	–	20	–	1500	2070	0.795
CCn1nc(N2CCCC2)c2c(N3CC4CCC(C3)O4)nc(-c3ccc(NC(=O)Nc4cccnc4)cc3)nc21 [Example 346, 1-{4-[1-ethyl-4-(8-oxa-3-azabicyclo[3.2.1]oct-3-yl)-3-pyrrolidin-1-yl-1H-pyrazolo[3,4-d]pyrimidin-6-yl]phenyl}-3-pyridin-3-ylurea]	290	–	–	950	–	372	448	10.9
O=C1CCC(n2ncc3c(N4CC5CCC(C4)O5)nc(-c4ccc(NC(=O)NC5CC5)cc4)nc32)CC1 [Example 401, 1-cyclopropyl-3-{4-[4-(8-oxa-3-azabicyclo[3.2.1]oct-3-yl)-1-(4-oxocyclohexyl)-1H-pyrazolo[3,4-d]pyrimidin-6-yl]phenyl}urea]	1	–	–	10	–	> 10000	2110	0.445
CCn1ncc2c(N3CC4CCC(C3)O4)nc(-c3ccc(NC(=O)NCC(=O)NCCN(C)C)cc3)nc21 [Example 278]	2200	494	311	5200	42	–	–	–
CNC(=O)Nc1ccc(-c2nc(N3CC4CCC(C3)O4)c3sc(CN4CCN(S(C)(=O)=O)CC4)cc3n2)cc1 [Example 429, 1-methyl-3-{4-[6-{[4-(methylsulfonyl)piperazin-1-yl]methyl}-4-(8-oxa-3-azabicyclo[3.2.1]oct-3-yl)thieno[3,2-d]pyrimidin-2-yl]phenyl}urea]	120	–	–	90	–	3710	46	1.41
COC(=O)Nc1ccc(-c2nc(N3CC4CCC(C3)O4)c3cnn(C(C)C)c3n2)cc1 [Example 138, methyl {4-[1-isopropyl-4-(8-oxa-3-azabicyclo[3.2.1]oct-3-yl)-1H-pyrazolo[3,4-d]pyrimidin-6-yl]phenyl}carbamate]	80	3780	1040	510	1.27	–	–	–
O=C(Nc1ccc(-c2nc(N3CC4CCC(C3)O4)c3cnn(C4CCC5(CC4)OCCO5)c3n2)cc1)NC1CC1 [Example 126, 1-cyclopropyl-3-{4-[1-(1,4-dioxaspiro[4.5]dec-8-yl)-4-(8-oxa-3-azabicyclo[3.2.1]oct-3-yl)-1H-pyrazolo[3,4-d]pyrimidin-6-yl]phenyl}urea]	2	> 10000	12000	58	0.22	–	–	–
